Measured values from patent US7955815B2, “Two-photon fluorescent probes for acidic vesicles in live cells and tissue and method of imaging acidic vesicles in live cells and tissue using the same” (Korea University Industrial & Academic Collaboration …, priority 2007, dated 2011).
≈ marks a conversion by molar mass, not a printed value.

What was measured:
[1] = Two-photon action cross section by fs fluorescence measurement, fluorescein as reference; format: physicochemical; settings: 780 nm
Method: The two-photon cross section (δ) was determined by using femto second (fs) fluorescence measurement technique.
Specifically, each of the probes AH1, AH2, AL1 and LYSOTRACKER™ Red (DND-99) was dissolved in a universal buffer (pH=3.2) at a concentration of 5.0×10^−6 M and then the two-photon induced fluorescence intensity was measured at 740-940 nm by using fluorescein (8.0×10^−6 M, pH=11) as the reference, whose two-photon property has been well characterized.
The intensities of the two-photon induced fluorescence spectra of the reference and the sample probe were measured, and the two-photon cross section of the sample probe was calculated according to Equation 2: […]
wherein the subscripts s and r represent the sample probe and the reference, respectively, δ represents the two-photon cross section of the sample probe, and S represents the intensity of the signal collected by a detector, Φ represents the fluorescence quantum yield, φ represents the overall fluorescence collection efficiency of the experimental apparatus, c represents the number density of the molecules in solution, and δr represents the two-photon cross section of the reference.
The two-photon action cross section of the sample probe was calculated by multiplying the two-photon cross section by the quantum yield.

[2] = Water solubility from fluorescence intensity vs probe concentration; format: physicochemical; settings: kinetic from dmso stock, H2O, 0.2% DMSO, read-out: solubility (maximum concentration in the linear region)
Method: Each of the probes AH1, AH2 and AL1 prepared in Examples 1-3 was dissolved in DMSO to prepare a stock solution (1.0×10^−3 M). The solution was diluted to […] and added to a cuvette containing 3.0 mL of H2O by using a micro syringe. In all cases, the concentration of DMSO in H2O was maintained to be 0.2%. The fluorescence intensity of the probe was measured as a function of the probe concentration.
Referring to FIG. 1, the fluorescence intensities of the probes increased in all wavelength bands with increasing probe concentration.
The plots (1b, 1d and 1f) have a profile in which the fluorescence intensity increases with increasing probe concentration.
Referring to the profile, the fluorescence intensity increases linearly until the dye concentration reaches a predetermined level. […] The maximum concentration in the linear region was taken as the solubility. The solubilities of the probes AH1, AH2, and AL1 were 5.0, 9.0, and 5.0 μM, respectively.

[3] = Fluorescence as a function of pH in universal buffer; pKa value analysis; format: physicochemical; settings: for fluorescence intensity change with pH: pH gradually decreased; for pKa: universal buffer solution, from fluorescence intensity as a function of pH
Method: Each of the probes AH1 and AH2 was dissolved in a universal buffer solution (0.1 M citric acid, 0.1 M KH2PO4, 0.1 M Na2B4O7, 0.1 M Tris, 0.1 M KCl 10 mM).
The fluorescence intensities of the probes AH1 and AH2 were measured, and titration curves thereof were plotted (FIG. 9). In FIG. 9, Y-axis represents the fluorescence intensity enhancement factor [(F−Fo)/Fo] (F is the fluorescence intensity and Fo is the minimum fluorescence intensity).
The pKa values were estimated from the fluorescence intensity measured as a function of the pH by using the relationship 1: log [(Imax−I)/(I−Imin)]=pH−pKa (1)
wherein I represents the fluorescence intensity, and Imax and Imin represent the maximum and minimum fluorescence intensity, respectively.

[4] = tested on: acidic vesicles in macrophages; assay: Two-photon microscopy images of labeled macrophages, co-localized with LysoTracker Red OPM image; format: cell-based; settings: TPM
Text: TPM images of individual macrophages labeled with the probe AH2 of Example 2 were obtained (FIG. 3).
In contrast, the TPM images of the AH2-labeled macrophages emitted TPEF only at 500-620 nm (3b), and not at 360-460 nm (3a), which was attributed to the membrane-bound probe.
To unambiguously determine whether the intense red spots (3b) are indeed the acidic vesicles, the macrophages were stained With LYSOTRACKER™ Red (LTR), a well known one-photon fluorescent probe, and a one-photon micrography (OPM) image thereof was obtained (3c). The TPM image was co-localized with the OPM image (3d).
Acidic vesicles were imaged in the same manner as in Experimental Example 3-(1), except that the probe AH1 of Example 1 was used instead of the probe AH2 of Example 2.
Acidic vesicles were imaged in the same manner as in Experimental Example 3-(1), except that the probe AL1 of Example 3 was used instead of the probe AH2 of Example 2.

[5] = tested on: acidic vesicles in hippocampal slices; assay: TPEF imaging of rat hippocampal slices
Method: Slices were prepared from the hippocampi of a 2-day-old rat. The hippocampal slices were cut into a thickness of 400 μm. The slices were incubated with the probes AH2 and AL1 (10-20 μM).
The slices were then washed and transferred to glass-bottomed dishes. The TPEF images of the slices were obtained.
40 TPM images were accumulated along the z-direction at the depth of ˜100-250 μm with magnification 10× (6b).

Compound	two-photon action cross section (Φδ) ([1]; universal buffer pH 3.2, 5.0×10^−6 M) [GM]	solubility [2] [µM]	fluorescence intensity change with pH [3]	pKa [3]	two-photon action cross section relative to LysoTracker Red [1] [fold]	imaging of acidic vesicles in macrophages (TPEF at 500-620 nm, merged with LTR image) [4]	depth at which TPEF images were obtained ([5]; 400 μm hippocampal slices of 2-day-old rat, probe 10-20 μM) [μm]	imaging of transportation of acidic vesicles ([5]; acute rat hippocampal slice, CA3 region, depth ~120 μm, 10 μM)
CN(C)CCNC(=O)CCc1ccc2n1[B-](F)(F)[N+]1=C(c3ccc[nH]3)C=CC1=C2 [LYSOTRACKER™ Red (LTR), reference compound]	~10							
COc1cc(NC(=O)CN(C)c2ccc3cc(C(C)=O)ccc3c2)ccc1N [AH2]		9 (≈ 3.4 µg/mL)	increased dramatically around pH 4-5	4.18 ± 0.01	9	clearly capable of imaging the acidic vesicles	250	
CC(=O)c1ccc2cc(N(C)CC(=O)Nc3ccc(N)cc3)ccc2c1 [AH1]		5 (≈ 1.74 µg/mL)	increased dramatically around pH 4-5	4.42 ± 0.03	9	clearly capable of imaging the acidic vesicles		
CC(=O)c1ccc2cc(N(C)CC(=O)NCCN(C)C)ccc2c1 [AL1]		5 (≈ 1.64 µg/mL)	maintained at a substantially constant level despite changes in acidity			clearly capable of imaging the acidic vesicles		can visualize the transportation of acidic vesicles in the CA3 region for a long period of time
